Results on 1 molecule are retold here after patent publication US9809537B2, “Glycosidase inhibitors and uses thereof” (Alectos Therapeutics Inc., priority 2012, dated 2017).

The target of this experiment is T1, human O-GlcNAcase (Homo sapiens, UniProt O60502).
T1 sequence (O60502 1-916): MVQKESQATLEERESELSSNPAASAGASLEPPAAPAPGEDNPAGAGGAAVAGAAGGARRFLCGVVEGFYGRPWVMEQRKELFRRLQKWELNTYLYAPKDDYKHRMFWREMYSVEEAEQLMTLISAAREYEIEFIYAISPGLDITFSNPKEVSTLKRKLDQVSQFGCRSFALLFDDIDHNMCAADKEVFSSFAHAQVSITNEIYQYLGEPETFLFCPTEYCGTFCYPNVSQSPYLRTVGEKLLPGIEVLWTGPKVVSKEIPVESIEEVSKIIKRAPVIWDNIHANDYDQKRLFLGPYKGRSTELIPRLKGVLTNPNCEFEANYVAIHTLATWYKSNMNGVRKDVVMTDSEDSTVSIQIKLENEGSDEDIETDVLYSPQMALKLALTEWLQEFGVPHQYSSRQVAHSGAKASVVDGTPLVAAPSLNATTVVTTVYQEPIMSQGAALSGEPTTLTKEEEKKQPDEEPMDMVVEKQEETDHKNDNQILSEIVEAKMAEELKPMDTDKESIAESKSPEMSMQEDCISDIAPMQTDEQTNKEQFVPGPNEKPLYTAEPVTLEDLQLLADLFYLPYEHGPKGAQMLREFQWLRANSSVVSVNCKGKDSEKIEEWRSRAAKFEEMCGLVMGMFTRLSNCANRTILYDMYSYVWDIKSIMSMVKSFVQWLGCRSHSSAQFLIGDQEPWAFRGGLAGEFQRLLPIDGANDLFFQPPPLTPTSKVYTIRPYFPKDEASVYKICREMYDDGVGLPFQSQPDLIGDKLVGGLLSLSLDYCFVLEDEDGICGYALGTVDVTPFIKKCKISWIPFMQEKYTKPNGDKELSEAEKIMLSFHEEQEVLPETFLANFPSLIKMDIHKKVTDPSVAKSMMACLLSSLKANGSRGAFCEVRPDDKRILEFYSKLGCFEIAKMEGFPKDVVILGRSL
The experiment in a line: Fluorescence-based assay for KI values for inhibition of O-GlcNAcase activity. It is filed as biochemical. The following applies: purified human O-GlcNAcase, 4-methylumbelliferyl GlcNAc substrate, pH 7.0, Cheng-Prusoff; read-out: Fluorescence-based hOGA Ki. On the procedure: Assay for Determination of KI Values for Inhibition of O-GlcNAcase Activity
Experimental Procedure for Kinetic Analyses:
Enzymatic reactions were carried out in a reaction containing 50 mM NaH2PO4, 100 mM NaCl and 0.1% BSA (pH 7.0) using 2 mM 4-Methylumbelliferyl N-acetyl-β-D-glucosaminide dihydrate (Sigma M2133) dissolved in ddH2O, as a substrate. The amount of purified human O-GlcNAcase enzyme used in the reaction was 0.7 nM. Test compound of varying concentrations was added to the enzyme prior to initiation of the reaction. The reaction was performed at room temperature in a 96-well plate and was initiated with the addition of substrate. The production of fluorescent product was measured every 60 sec for 45 min with a Tecan Infinite M200 plate-reader with excitation at 355 nm and emission detected at […], with 4-Methylumbelliferone (Sigma M1381) used to produce a standard curve. The slope of product production was determined for each concentration of compound tested and plotted, using standard curve fitting algorithms for sigmoidal dose response curves. The values for a four parameter logistic curve fit of the data were determined.
KI values were determined using the Cheng-Prusoff equation; the Km of O-GlcNAcase for substrate was 0.2 mM.

Consider `CC(=O)NC[C@@H]1[C@@H](O)[C@H](O)[C@@H](CO)N1CCCc1ccc(-c2ccccc2)cc1` [Example 3, N-(((2R,3R,4R,5R)-1-(3-([1,1′-biphenyl]-4-yl)propyl)-3,4-dihydroxy-5-(hydroxymethyl)pyrrolidin-2-yl)methyl)acetamide], for which the Ki (in general, a dissociation constant, usually derived from enzyme kinetics or from competition with a known ligand) was determined as 16 nM.
